In BindingDB's records for doi:10.3109/14756366.2012.727812 (Shiraz University, 2013):
“And” between values parts separate entries of the source, which are not always exact repeats. Equal entries are not always repeated.

Target: Alpha-glucosidase MAL12 (Saccharomyces cerevisiae (strain ATCC 204508 / S288c), UniProt P53341)
Test: Inhibition Assay
Details: pH 7
Method: In this study, the inhibition assay of yeast enzyme was performed in 100 mM phosphate buffer pH 7.0 at 25°C with minor changes, according to the methods reported previously. [Saijyo et al., J. Oleo. […] After centrifugation, the supernatant was dialyzed against 10 mM potassium phosphate buffer (pH 7.0) containing 0.

Sequence of Alpha-glucosidase MAL12 (P53341 whole entry): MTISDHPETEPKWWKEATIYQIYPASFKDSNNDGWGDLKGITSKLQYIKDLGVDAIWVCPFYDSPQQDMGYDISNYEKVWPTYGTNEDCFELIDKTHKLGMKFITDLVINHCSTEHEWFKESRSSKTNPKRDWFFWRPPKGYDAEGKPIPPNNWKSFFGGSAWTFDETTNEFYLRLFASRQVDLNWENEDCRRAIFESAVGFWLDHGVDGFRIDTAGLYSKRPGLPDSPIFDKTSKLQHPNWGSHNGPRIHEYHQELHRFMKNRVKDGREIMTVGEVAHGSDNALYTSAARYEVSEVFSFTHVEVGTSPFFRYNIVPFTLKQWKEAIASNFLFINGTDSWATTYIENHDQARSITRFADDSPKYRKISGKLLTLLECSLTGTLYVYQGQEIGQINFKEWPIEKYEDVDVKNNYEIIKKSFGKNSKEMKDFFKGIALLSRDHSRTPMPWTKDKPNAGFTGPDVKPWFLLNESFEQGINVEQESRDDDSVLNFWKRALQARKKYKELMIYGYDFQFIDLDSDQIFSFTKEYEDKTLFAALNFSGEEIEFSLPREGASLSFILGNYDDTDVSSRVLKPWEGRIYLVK

| SMILES | IC50 | Ki |
| --- | --- | --- |
| O=c1[nH]c2c(c(=O)[nH]1)C(C(O)C(O)C(O)C(O)CO)c1c([nH]c(=O)[nH]c1=O)N2c1ccc(Br)cc1 (stereo not drawn) [α-Gl inhibitor, C2] | 25.1 µM | 30 µM and 130 µM |
| Nc1ccc(S(=O)(=O)c2ccc(N3c4[nH]c(=O)[nH]c(=O)c4C(C(O)C(O)C(O)C(O)CO)c4c3[nH]c(=O)[nH]c4=O)cc2)cc1 (stereo not drawn) [α-Gl inhibitor, C3] | 9.6 µM | 14 µM |
| O=c1[nH]c2c(c(=O)[nH]1)C(C(O)C(O)C(O)C(O)CO)c1c([nH]c(=O)[nH]c1=O)N2c1ccc(O)cc1 (stereo not drawn) [α-Gl inhibitor, C1] | 74.9 µM | 70 µM and 170 µM |
